Measured values published in US12544348B2, “Methods for treating APOE4/4-associated disorders” (The Regents of the University of California, priority 2018, dated 2026).

Columns and labels:
[1] = test system: hippocampus of apoE4-KI mice; assay: RNA-Seq analysis of hippocampal tissue of apoE4-KI mice; format: in vivo
Protocol: RNA-Seq analysis of hippocampal tissue. Twelve-month-old apoE3-KI and apoE4-KI mice received daily i.p. injections of vehicle or bumetanide (0.2 mg/kg body weight) for 60 days. Mice were perfused with 0.9% saline, and the hippocampus was dissected and homogenized in Trizol reagent. Total RNA was extracted and purified with the Qiagen RNeasy Micro kit, which included a DNase treatment. cDNA was generated from full-length RNA (50 ng per sample) with the NuGEN RNA-Seq V2 kit, which uses the single primer isothermal amplification method to deplete ribosomal RNA, and sheared by Covaris to yield fragments of uniform size. The NuGen Ultralow system V2 was used for adding adapters and for barcoding and amplification. The resulting RNA libraries were purified with Agencourt XP magnetic beads, and quantified by qPCR after quality control with an Agilent Bioanalyzer. The libraries were pooled and sequenced with a HiSeq 4000 instrument (Illumina) for single-end (SE50) sequencing. Sequence data were aligned with the STAR short read aligner^33 and counts per feature were obtained with the feautureCounts function from the Subread package^34. After alignment, transcripts not shared in the GSE15222 and Syn3157255-MayoEGWAS databases were discarded, as were genes with less than one count per million in two or more samples^35.
The DESeq pipeline was used to assess DE of the remaining 11,877 transcripts. Genes below a P value of 0.05 were considered DE for future pathway analysis. After count normalization with DESeq, data were rld transformed (vsn package), and clustering was done on the DE genes with the pheatmap package. PCA was applied to the rld-transformed DE genes. The DE signatures of drugs were analyzed with Ingenuity Pathway Analysis software. Ontology analysis was done using the reference set from the Ingenuity Knowledge Base including direct and indirect gene relationships. For analysis of rank changes of apoE-genotype-specific signature genes of AD, the raw count data from the 11,877 transcripts were rank transformed, and for each gene the average rank of vehicle-treated samples was subtracted from that of bumetanide-treated samples.

[2] = test system: hippocampal slices from apoE4-KI mice; assay: Brain slice electrophysiological recordings (LTP, input-output) after in vivo treatment; conditions: 0.2 mg/kg for 8 weeks
Source text: Brain slice electrophysiological recordings and data analyses. For long-term potentiation (LTP) recording study, apoE4-KI mice were randomly allocated to vehicle (n=6, age 15.2±0.56 months) and bumetanide (n=3, age 15.1±0.06) treatment groups. ApoE3-KI mice were similarly allocated into vehicle (n=6, age 15.5±0.11) and bumetanide (n-3, age 15.57±0.19) treatment groups. For input/output recording study, apoE4-KI mice were randomly allocated to vehicle (n=3, age 15.1±0.06 months) and bumetanide (n=3, age 15.1±0.06) treatment groups. ApoE3-KI mice were similarly allocated into vehicle (n=7, age 15.3±0.06) and bumetanide (n=3, age 15.57±0.29) treatment groups. […]
Field post-synaptic potentials (fPSPs) were elicited by orthodromic stimulation of Schaffer collaterals by concentric bipolar stimulating electrode (FHC, Inc., USA) connected to a constant voltage isolated stimulator (DS2A-MKII, Digitimer North America) and placed in CA2 stratum radiatum. fPSPs were recorded with a glass borosilicate microelectrode filled with ACSF and placed in CA1 stratum radiatum. Signals were sampled and digitized by MultiClamp 700B amplifier and Digidata 1550B1 acquisition system with pClamp10 software (Molecular Devices, USA), and analyzed using IgorPro6 software (Wavemetrics Inc., USA) running custom macros. fPSP slopes were analyzed as the linear fit slope values between 10% and 90% of fPSP peak. […]

With `CCCCNc1cc(C(=O)O)cc(S(N)(=O)=O)c1Oc1ccccc1` [bumetanide, 3-(butylamino)-4-phenoxy-5-sulfamoylbenzoic acid] the “number of significantly perturbed pathways (Ingenuity Pathway Analysis)” value ([1]; DE genes P<0.05, apoE4-KI mouse hippocampus, 0.2 mg/kg i.p. 8 weeks) was 71, the “number of enriched pathways shared with apoE4/4 AD in humans” value ([1]; apoE4-KI mouse hippocampus, 0.2 mg/kg i.p. 8 weeks) was 6 and the “mean change in expression rank of genes downregulated in apoE4/4 AD (n=56)” value ([1]; apoE4-KI mouse hippocampus, 0.2 mg/kg i.p. 8 weeks vs vehicle) was “not significantly shifted away from zero”. For the same molecule, the “average change in expression rank of the 157 genes upregulated in apoE4/4 human AD” value ([1]; apoE4-KI mouse hippocampus, 0.2 mg/kg i.p. 8 weeks vs vehicle, mean of all genes zero, P<0.001 Monte Carlo, shift toward lower expression) was 49.76, the “long-term potentiation (LTP) in CA1 region of hippocampal slices” value ([2]; aged (16-month-old) apoE4-KI mice, theta burst stimulation) was “completely rescued LTP deficit” and the “neuronal hyperexcitability in CA1 region (input-output curve analysis)” value ([2]; aged apoE4-KI mice) was “normalized”.
